Measurements: patent publication US20100029643A1 (ASTRAZENECA AB, priority 2006, published 2010)

Biological target: T1, Edg-1/S1P1 receptor (Homo sapiens, UniProt P21453)
T1 construct: expressed in transfected cells; host or cells: human osteogenic sarcoma U2OS cells: Edg-1 Transfluor U2OS WT Clone #37 (assay I), Edg-1 Transfluor U2OS Clone #3 (assay II)
Assay: In vitro cell based receptor activation assay - Transfluor assay (assay I or II; beta-arrestin GFP relocalization after S1P stimulation)
Settings: for inhibition at 3.5 µM: at 3.50 μM (titrated from top concentration 10 μM); for inhibition at 3.7 µM: at 3.70 μM (titrated from top concentration 100 μM)
Source text: The following assays can be used to measure the effects of the compounds of the present invention as S1P1/Edg1 inhibitors.
I. In Vitro Cell Based Receptor Activation Assay-Transfluor Assay
(§1) This cell-based assay was designed to assess the ability of small molecule antagonists to inhibit activation of the GPCR S1P1 in the presence of its cognate ligand S1P. The assay used technology initially developed by Norak Biosciences (Xsira Pharmaceutical) and presently owned by Molecular Devices. A human osteogenic sarcoma (U2OS) cell line overexpressing the Edg-1/S1P1) receptor as well as a beta-arrestin/green fluorescent protein (GFP) construct hereafter termed Edg-1 Transfluor U2OS WT Clone #37 was employed.
Using a high content screening approach (Cellomics Arrayscan), receptor activity was measured by assessment of the relocalization of beta-arrestin GFP in response to stimulation of Edg-1 by SIP. Specifically, Edg-1 Transfluor U2OS WT Clone #37 cells were plated at a density of 6250 cells in 40 μL medium per well in 384 well plastic bottomed microtiter plates (BD Falcon) and incubated overnight at 37° C./5% CO2. Prior to screening, compounds were dissolved in 100% dimethyl sulfoxide (DMSO) to a final stock concentration of 10 mM. Compounds were then serially diluted at 30× final concentration in Edg-1 Transfluor cell growth medium containing […] using the Tecan Genesis instrument. These 30× plates were then diluted to 6× final concentration with Edg-1 Transfluor growth medium just prior to dosing. Cells were then dosed with 10 μL per well of 6× compound dilutions or 6% DMSO and pre-incubated for 15 minutes at room temperature. Cell plates were dosed with 10 μL per well 6× S1P Edg-1 Transfluor growth medium, then incubated for 45 minutes at 37° C./5% CO2. Final concentration in the well of DMSO was 1%, compound was IX (3-fold, 9 point IC50 dilutions starting at 100 μM final concentration), and either 375 nM or […] SIP ligand. Cell plates were then fixed by adding 50 μL per well of 5% formaldehyde in 1× Dulbecco's phosphate buffered saline (DPBS) directly and incubating for 30 minutes at room temperature in darkness. Fixative was removed and replaced with 50 μL per well of 1×DPBS, after which cells were stained with 10 μg/mL final concentration of Hoechst 33342 (Molecular Probes) for 15 minutes at room temperature in darkness. Stain was then removed from the plates and replaced with 50 μL per well of 1×DPBS using the BioTek ExL405 plate washer. Plates were then sealed and analysed on the Cellomics Arrayscan using the GPCR signalling algorithm. EC50 values were then calculated using IDBS ActivityBase software.
II. In Vitro Cell Based Receptor Activation Assay-Transfluor Assay
as §1, with “Devices (MDS Analytical Technologies).” for “Devices.”, “U2OS” for “U2OS WT”, “#3” for “#37”
Using a high content screening approach (Molecular Devices Image Express), receptor activity was measured by assessment of the relocalization of beta-aiTestin GFP in response to stimulation of Edg-1 by S1P. Specifically, Edg-1 Transfluor U2OS Clone #3 cells were plated at a density of 6250 cells in 44 μL medium per well in 384 well plastic bottomed microtiter plates (BD Falcon) and incubated overnight at 37° C./5% CO2. Prior to screening, compounds were dissolved in 100% dimethyl sulfoxide (DMSO) to a final stock concentration of 10 mM. Compounds were then serially diluted at 10× final concentration in Edg-1 Transfluor cell growth medium containing 6% DMSO using the BioMek instrument. […]

T1 sequence (P21453 whole entry): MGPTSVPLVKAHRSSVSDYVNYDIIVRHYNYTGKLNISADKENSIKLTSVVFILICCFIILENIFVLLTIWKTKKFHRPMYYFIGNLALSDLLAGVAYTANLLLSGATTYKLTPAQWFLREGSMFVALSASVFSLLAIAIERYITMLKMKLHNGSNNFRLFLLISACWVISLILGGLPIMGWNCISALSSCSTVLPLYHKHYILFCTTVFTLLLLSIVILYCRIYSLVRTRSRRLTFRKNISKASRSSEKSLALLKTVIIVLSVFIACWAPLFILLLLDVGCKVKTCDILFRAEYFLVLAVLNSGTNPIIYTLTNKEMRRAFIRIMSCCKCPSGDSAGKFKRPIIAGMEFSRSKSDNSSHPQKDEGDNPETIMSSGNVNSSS

SMILES | inhibition at 3.5 µM [%] | further results
CCn1c([C@@H](C)NS(=O)(=O)c2ccc(Cl)cc2)nc2cnc(C3CC3)cc21 [Example 98, 4-Chloro-N-[(1R)-1-(6-cyclopropyl-1-ethyl-1H-imidazo[4,5-c]pyridin-2-yl)ethyl]benzenesulfonamide] | 88.2 | 
CCn1c([C@@H](C)NS(=O)(=O)c2ccc(C)cc2)nc2ccc(C(F)(F)F)cc21 [Example 115, (R)-N-(1-(1-Ethyl-6-(trifluoromethyl)-1H-benzo[d]imidazol-2-yl)ethyl)-4-methylbenzenesulfonamide] | 85.3 | 
CCn1c([C@@H](C)NS(=O)(=O)c2ccc(NC)nc2)nc2ccc(C(F)(F)F)cc21 [Example 182, N-{(1R)-1-[1-Ethyl-6-(trifluoromethyl)-1H-benzimidazol-2-yl]ethyl}-6-(methylamino)pyridine-3-sulfonamide] | 92.5 | 
CCn1c([C@@H](C)NS(=O)(=O)c2ccc(Cl)cc2)nc2cc(-c3cccnc3)ccc21 [Example 82, 4-Chloro-N-[(1R)-1-(1-ethyl-5-pyridin-3-yl-1H-benzimidazol-2-yl)ethyl]benzenesulfonamide] |  | inhibition at 3.7 µM: 10.3%
CCn1c([C@@H](C)NS(=O)(=O)c2ccc(Cl)cc2)nc2cc(F)cc(F)c21 [Example 57, 4-Chloro-N-[(1R)-1-(1-ethyl-5,7-difluoro-1H-benzimidazol-2-yl)ethyl]benzenesulfonamide] |  | inhibition at 3.7 µM: 84.5%
CCn1c([C@@H](C)NS(=O)(=O)c2cccc(Cl)c2)nc2ccc(C(F)(F)F)cc21 [Example 123, 3-Chloro-N-{(1R)-1-[1-ethyl-6-(trifluoromethyl)-1H-benzimidazol-2-yl]ethyl}benzenesulfonamide] | 96.7 | 
CCn1c([C@@H](C)NS(=O)(=O)c2ccc(CC(C)C)cc2)nc2ccc(C(F)(F)F)cc21 [Example 116, N-{(1R)-1-[1-Ethyl-6-(trifluoromethyl)-1H-benzimidazol-2-yl]ethyl}-4-isobutylbenzenesulfonamide] | 64.1 | 
CCn1c(C(C)(C)NS(=O)(=O)c2ccc(C#N)cc2)nc2ncccc21 [Example 176, 4-Cyano-N-[1-(1-ethyl-1H-imidazo[4,.5-b]pyridin-2-yl)-1-methylethyl] benzenesulfonamide] | 36.3 | 
CCn1c([C@@H](C)NS(=O)(=O)C2CC2)nc2ccc(C(F)(F)F)cc21 [Example 38, N-{(1R)-1-[1-Ethyl-6-(trifluoromethyl)-1H-benz-imidazol-2-yl]ethyl}cyclo-propanesulfonamide] |  | inhibition at 3.7 µM: 35.1%
CCn1c([C@@H](C)NS(=O)(=O)c2ccc(C(=O)NC)nc2)nc2ccc(C(F)(F)F)cc21 [Example 172, (R)-5-[1-(1-Ethyl-6-trifluoromethyl-1H-benzoimidazol-2-yl)-ethylsulfamoyl]-pyridine-2-carboxylic acid methylamide] | 69.1 | 
CCn1c([C@@H](C)NS(=O)(=O)c2ccc[n+]([O-])c2)nc2ccc(C(F)(F)F)cc21 [Example 164, (R)-3-(N-(1-(1-ethyl-6-(trifluoromethyl)-1H-benzo[d]imidazol-2-yl)ethyl)sulfamoyl)pyridine 1-oxide] | 19.5 | 
CCCn1c(C(C)NS(=O)(=O)c2ccc(Cl)cc2)nc2ccccc21 (stereo not drawn) [Example 17, 4-Chloro-N-[1-(1-propyl-1H-benzimidazol-2-yl)ethyl]-benzenesulfonamide] |  | inhibition at 3.3 µM (at 3.30 μM (run with this as top concentration)): 92.8%
CCn1c([C@@H](C)NS(=O)(=O)c2ccc(Cl)cc2)nc2cc(Cl)cc(Cl)c21 [Example 58, 4-Chloro-N-[(1R)-1-(5,7-dichloro-1-ethyl-1H-benzimidazol-2-yl)ethyl]benzenesulfonamide] |  | inhibition at 3.7 µM: 78.2%
CCn1c([C@@H](C)NS(=O)(=O)c2ccc(Cl)cc2)nc2ccc(SC)cc21 (stereo in doubt) [Example 79, 4-Chloro-N-{1-[1-ethyl-6-(methylthio)-1H-benzimidazol-2-yl]ethyl}benzenesulfonamide] |  | inhibition at 3.7 µM: 94.9%
CCn1c([C@@H](C)NS(=O)(=O)c2ccc(OC(C)C)cc2)nc2ccc(C(F)(F)F)cc21 [Example 156] | 80.7 | 
CCn1c([C@@H](C)NS(=O)(=O)c2ccc(Cl)cc2)nc2nnc(Cl)cc21 [Example 87, 4-Chloro-N-[(1R)-1-(3-chloro-5-ethyl-5H-imidazo[4,5-c]pyridazin-6-yl)ethyl]benzenesulfonamide] |  | inhibition at 3.7 µM: 62.4%
CCn1c([C@@H](C)NS(=O)(=O)c2ccc(C#N)nc2)nc2ccc(C(F)(F)F)cc21 [Example 105, (R)-6-Cyano-N-(1-(1-ethyl-6-(trifluoromethyl)-1H-benzo[d]imidazol-2-yl)ethyl) pyridine-3-sulfonamide] | 93.1 | 
CCn1c([C@@H](C)NS(=O)(=O)c2ccc(CCl)cc2)nc2ccc(C(F)(F)F)cc21 [Example 166, (R)-4-(Chloromethyl)-N-(1-(1-ethyl-6-(trifluoromethyl)-1H-benzo[d]imidazol-2-yl)ethyl)benzenesulfonamide] | 86 | 
CCn1c(C(Cc2cccnc2)NS(=O)(=O)c2ccc(Cl)cc2)nc2ccccc21 (stereo not drawn) [Example 7, 4-Chloro-N-[1-(1-ethyl-1H-benzimidazol-2-yl)-2-pyridin-3-yl-ethyl]benzene-sulfonamide] |  | inhibition at 3.7 µM: 79.7%
CCn1c(C(C)(C)NS(=O)(=O)c2ccc(C(N)=O)nc2)nc2ncccc21 [Example 178, 5-({[1-(1-Ethyl-1H-imidazo[4,5-b]pyridin-2-yl)-1-methylethyl]amino}sulfonyl)pyridine-2-carboxamide] | 8.27 | 
CCn1c(C(C)(C)NS(=O)(=O)c2ccc(F)cc2)nc2cnc(C(F)(F)F)cc21 [Example 153, N-(2-(1-Ethyl-6-(trifluoromethyl)-1H-imidazo[4,5-c]pyridin-2-yl)propan-2-yl)-4-fluorobenzenesulfonamide] | 82 | 
CCn1c([C@@H](C)NS(=O)(=O)c2ccc3c(c2)OCO3)nc2ccc(C(F)(F)F)cc21 [Example 45, N-{(1R)-1-[1-Ethyl-6-(trifluoromethyl)-1H-benzimidazol-2-yl]ethyl}-1,3-benzodioxole-5-sulfonamide] | 96 | 
CCn1c([C@@H](C)NS(=O)(=O)c2ccc(F)cc2)nc2ncc(C(F)(F)F)cc21 [Example 179, N-{(1R)-1-[1-Ethyl-6-(trifluoromethyl)-1H-imidazo[4,5-b]pyridin-2-yl]ethyl}-4-fluorobenzene sulfonamide] | 90.5 | 
CCn1c([C@@H](C)NS(=O)(=O)c2ccc(Cl)cc2)nc2ccc(F)c(F)c21 [Example 65, 4-Chloro-N-[(1R)-1-(1-ethyl-6,7-difluoro-1H-benzimidazol-2-yl)ethyl]benzenesulfonamide] |  | inhibition at 3.7 µM: 84.2%
CCn1c(C(C)(C)NS(=O)(=O)c2ccc(C#N)cc2)nc2cnc(C3CC3)cc21 [Example 185, 4-Cyano-N-[1-(6-cyclopropyl-1-ethyl-1H-imidazo[4,5-c]pyridin-2-yl)-1-methyl-ethyl]-benzenesulfonamide] | 65 | 
CCn1c(C(C)(C)NS(=O)(=O)c2ccc(C#N)nc2)nc2ccc(C(F)(F)F)cc21 [Example 140, 6-Cyano-N-(2-(1-ethyl-6-(trifluoromethyl)-1H-0 benzo[d]imidazol-2-yl)propan-2-yl)pyridine-3-sulfonamide] | 82.9 | 
CCn1c([C@@H](C)NS(=O)(=O)c2ccc(F)cc2)nc2cnc(OC)cc21 [Example 132, (R)-N-(1-(1-Ethyl-6-methoxy-1H-imidazo[4,5-c]pyridin-2-yl)ethyl)-4-fluorobenzenesulfonamide] | 86.2 | 
